From ChEMBL document CHEMBL3217594, “Structureactivity relationships of methyl-lysine reader antagonists” (Medchemcomm, 2012)

Biological target: TP53-binding protein 1 (Homo sapiens) (UniProt Q12888)
Assay: Effect on GST-fused 53BP1 Tudor domain (unknown origin)/biotinylated H4K20Me1 peptide interaction assessed as binding of 53BP1 to H4K20Me1 at 25 uM by pull down assay based western blot analysis

Sequence of TP53-binding protein 1 (Homo sapiens) (Q12888 whole entry, the tested form may be a part): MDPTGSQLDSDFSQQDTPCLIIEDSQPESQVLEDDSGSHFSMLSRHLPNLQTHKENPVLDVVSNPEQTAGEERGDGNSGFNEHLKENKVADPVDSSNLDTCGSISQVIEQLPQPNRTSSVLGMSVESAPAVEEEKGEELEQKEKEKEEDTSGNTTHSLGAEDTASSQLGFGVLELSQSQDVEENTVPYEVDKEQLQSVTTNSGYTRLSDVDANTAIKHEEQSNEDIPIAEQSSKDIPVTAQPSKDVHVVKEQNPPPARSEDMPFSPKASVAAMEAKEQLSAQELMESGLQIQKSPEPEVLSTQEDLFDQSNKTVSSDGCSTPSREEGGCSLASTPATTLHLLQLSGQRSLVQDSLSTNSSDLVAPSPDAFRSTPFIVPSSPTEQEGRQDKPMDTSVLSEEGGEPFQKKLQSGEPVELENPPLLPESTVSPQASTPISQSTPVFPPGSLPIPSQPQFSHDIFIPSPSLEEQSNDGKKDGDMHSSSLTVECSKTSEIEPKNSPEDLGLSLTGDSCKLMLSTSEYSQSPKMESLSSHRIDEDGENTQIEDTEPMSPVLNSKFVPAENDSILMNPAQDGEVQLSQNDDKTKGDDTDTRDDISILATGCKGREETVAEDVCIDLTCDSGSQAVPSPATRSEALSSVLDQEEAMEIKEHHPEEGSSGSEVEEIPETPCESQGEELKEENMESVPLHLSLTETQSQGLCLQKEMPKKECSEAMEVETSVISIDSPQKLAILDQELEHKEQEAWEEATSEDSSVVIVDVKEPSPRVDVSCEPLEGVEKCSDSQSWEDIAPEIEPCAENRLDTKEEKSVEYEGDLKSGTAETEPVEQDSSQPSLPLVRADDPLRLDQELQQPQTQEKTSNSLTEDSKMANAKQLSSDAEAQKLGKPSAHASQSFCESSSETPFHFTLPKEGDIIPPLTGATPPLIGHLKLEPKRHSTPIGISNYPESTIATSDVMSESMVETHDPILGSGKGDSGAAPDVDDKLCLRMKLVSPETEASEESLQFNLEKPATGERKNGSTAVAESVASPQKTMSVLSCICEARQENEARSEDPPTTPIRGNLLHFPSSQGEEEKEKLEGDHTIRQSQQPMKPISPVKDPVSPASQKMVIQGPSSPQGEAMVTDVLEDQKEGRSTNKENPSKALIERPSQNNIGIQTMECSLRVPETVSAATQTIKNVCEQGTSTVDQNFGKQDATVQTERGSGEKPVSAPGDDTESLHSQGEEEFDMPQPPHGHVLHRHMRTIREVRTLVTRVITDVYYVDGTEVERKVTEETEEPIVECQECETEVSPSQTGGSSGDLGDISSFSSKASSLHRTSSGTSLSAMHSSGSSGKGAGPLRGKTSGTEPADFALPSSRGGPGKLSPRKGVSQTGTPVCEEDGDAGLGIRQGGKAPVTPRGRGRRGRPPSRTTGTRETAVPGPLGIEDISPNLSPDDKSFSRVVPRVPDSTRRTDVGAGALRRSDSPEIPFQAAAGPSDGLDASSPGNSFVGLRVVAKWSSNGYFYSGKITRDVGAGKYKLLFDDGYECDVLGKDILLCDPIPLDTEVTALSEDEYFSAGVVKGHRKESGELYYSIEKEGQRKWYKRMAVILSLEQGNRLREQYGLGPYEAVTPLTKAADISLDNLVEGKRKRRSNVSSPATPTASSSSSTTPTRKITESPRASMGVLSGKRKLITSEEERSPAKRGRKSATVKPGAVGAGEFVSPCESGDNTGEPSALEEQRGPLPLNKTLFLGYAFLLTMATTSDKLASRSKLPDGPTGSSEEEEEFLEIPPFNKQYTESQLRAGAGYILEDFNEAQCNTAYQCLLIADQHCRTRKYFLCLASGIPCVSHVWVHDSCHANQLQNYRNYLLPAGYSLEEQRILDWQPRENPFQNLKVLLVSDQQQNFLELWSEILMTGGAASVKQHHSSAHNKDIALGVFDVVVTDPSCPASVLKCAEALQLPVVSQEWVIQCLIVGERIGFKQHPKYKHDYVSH

SMILES	Activity [%]
O=C(c1cccc(Br)c1)N1CCC(N2CCCC2)CC1	106
O=C(c1cccc(Br)c1)N1CCC(N2CCCCC2)CC1	91
